Measured values as given in the NIST ThermoML archive (doi:10.1016/j.fluid.2017.04.016).
± gives the expanded uncertainty stated by the source.

Assay: mean ionic activity coefficient (dimensionless); mn = molality of the nth substance listed, in mol/kg
Conditions: 101 kPa, Liquid, galvanic cell

Q: What does the source list for [Br-].[Na+] [sodium bromide] + O?
A: mean ionic activity coefficient (298.2 K, m1 = 0.01): 0.875 ± 0.039; mean ionic activity coefficient (298.2 K, m1 = 0.0508): 0.835 ± 0.039; mean ionic activity coefficient (298.2 K, m1 = 0.1009): 0.777 ± 0.039; mean ionic activity coefficient (298.2 K, m1 = 0.2509): 0.799 ± 0.039; mean ionic activity coefficient (298.2 K, m1 = 0.5004): 0.699 ± 0.039; mean ionic activity coefficient (298.2 K, m1 = 0.75): 0.637 ± 0.039; mean ionic activity coefficient (298.2 K, m1 = 1): 0.612 ± 0.039; mean ionic activity coefficient (298.2 K, m1 = 1.25): 0.587 ± 0.039; mean ionic activity coefficient (298.2 K, m1 = 1.5): 0.57 ± 0.039; mean ionic activity coefficient (298.2 K, m1 = 1.75): 0.575 ± 0.039; mean ionic activity coefficient (298.2 K, m1 = 2): 0.642 ± 0.039; mean ionic activity coefficient (298.2 K, m1 = 2.25): 0.633 ± 0.039; mean ionic activity coefficient (298.2 K, m1 = 2.5): 0.644 ± 0.039; mean ionic activity coefficient (298.2 K, m1 = 2.75): 0.584 ± 0.039; mean ionic activity coefficient (298.2 K, m1 = 3): 0.616 ± 0.039; mean ionic activity coefficient (310.2 K, m1 = 0.0508): 0.714 ± 0.039; mean ionic activity coefficient (310.2 K, m1 = 0.1): 0.631 ± 0.039; mean ionic activity coefficient (310.2 K, m1 = 0.25): 0.669 ± 0.039; mean ionic activity coefficient (310.2 K, m1 = 0.5731): 0.579 ± 0.039; mean ionic activity coefficient (310.2 K, m1 = 0.7503): 0.559 ± 0.039; mean ionic activity coefficient (310.2 K, m1 = 1): 0.547 ± 0.039; mean ionic activity coefficient (310.2 K, m1 = 1.25): 0.553 ± 0.039; mean ionic activity coefficient (310.2 K, m1 = 1.5): 0.576 ± 0.039; mean ionic activity coefficient (310.2 K, m1 = 1.75): 0.61 ± 0.039; mean ionic activity coefficient (310.2 K, m1 = 2): 0.635 ± 0.039; mean ionic activity coefficient (310.2 K, m1 = 2.25): 0.643 ± 0.039; mean ionic activity coefficient (310.2 K, m1 = 2.5): 0.646 ± 0.039; mean ionic activity coefficient (310.2 K, m1 = 2.75): 0.711 ± 0.039; mean ionic activity coefficient (310.2 K, m1 = 3): 0.846 ± 0.039
